Bridge positions count the residues as written; N and C are the ends. Square brackets hold non-standard residues; d marks the D form. Peptide text beside a SMILES is read from it. * marks the point of attachment. ξ: configuration not given here. Phe(4-COOH) = N[C@@H](Cc1ccc(C(=O)O)cc1)C(=O)O; Tyr(Ph) = N[C@@H](Cc1ccc(Oc2ccccc2)cc1)C(=O)O; Bip = N[C@@H](Cc1ccc(-c2ccccc2)cc1)C(=O)O; Phe(3-CN) = N#Cc1cccc(C[C@H](N)C(=O)O)c1; Phe(2-CN) = N#Cc1ccccc1C[C@H](N)C(=O)O; Phe(3-Me) = Cc1cccc(C[C@H](N)C(=O)O)c1; Val(3-OH) = CC(C)(O)[C@H](N)C(=O)O; 2Pal = N[C@@H](Cc1ccccn1)C(=O)O; 4Pal = N[C@@H](Cc1ccncc1)C(=O)O; Cha = N[C@@H](CC1CCCCC1)C(=O)O; Cit = NC(=O)NCCC[C@H](N)C(=O)O; Thr(3ξ) = CC(O)[C@H](N)C(=O)O; Carboxymethyl = O=C(O)C*; NMeA = CN[C@@H](C)C(=O)O; Nle = CCCC[C@H](N)C(=O)O; Pra = C#CC[C@H](N)C(=O)O; Dab = NCC[C@H](N)C(=O)O; Dap = NC[C@H](N)C(=O)O; Piv = CC(C)(C)C(=O)*

In the test the target is T1, PE-labeled human PD-L1-Ig binding to Jurkat cell line over-expressing human PD-1 (Jurkat-PD-1) (Homo sapiens, UniProt Q15116).
T1 construct: expressed in transfected cells; host or cells: Jurkat
T1 sequence (Q15116 25-288): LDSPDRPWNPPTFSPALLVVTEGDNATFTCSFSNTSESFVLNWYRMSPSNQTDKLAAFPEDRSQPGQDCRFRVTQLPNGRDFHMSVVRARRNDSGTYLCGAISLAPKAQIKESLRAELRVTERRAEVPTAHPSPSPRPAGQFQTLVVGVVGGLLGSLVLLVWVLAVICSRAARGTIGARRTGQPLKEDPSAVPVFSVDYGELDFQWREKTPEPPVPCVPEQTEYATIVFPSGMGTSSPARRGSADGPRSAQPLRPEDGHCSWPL
In words: Jurkat-PD-1 Cell Binding High-Content Screening Assay (CBA): Method 1. The conditions noted are these: Jurkat-hPD-1 cells, PE-labeled PD-L1-Ig 20 nM final; read-out: Jurkat HPDL1 PD1 IC50 (uM) (Method 1).
In the case of `Cc1cccc(C[C@@H]2NC(=O)[C@H](CC(=O)O)NC(=O)[C@H](Cc3ccc(OCC(=O)O)cc3)NC(=O)[C@H](Cc3ccncc3)NC(=O)CSC[C@@H](C(=O)N[C@@H](CCNC(=O)C(C)(C)C)C(N)=O)NC(=O)[C@H](Cc3cnc[nH]3)NC(=O)[C@H](C(C)(C)O)NC(=O)[C@H](CC3CCCCC3)NC(=O)[C@H](CCN)NC(=O)[C@@H](CC(C)C)NC(=O)[C@H](C)N(C)C(=O)[C@H](Cc3ccc(OCC(=O)O)cc3)NC(=O)[C@H](Cc3ccc(-c4ccccc4)cc3)NC(=O)[C@H](Cc3ccc(C(=O)O)cc3)NC2=O)c1` [Compound 2165] ({CH2CO}-[4Pal]Y(Carboxymethyl)D[Phe(3-Me)][Phe(4-COOH)][Bip]Y(Carboxymethyl)[NMeA][dL][Dab][Cha][Val(3-OH)]HC[Dab](Piv)-NH2; thioether N-14), the IC50 is 0.04 µM.

Turning to `CC(C)C[C@@H]1NC(=O)[C@H](CCN)NC(=O)[C@@H](CC(C)C)NC(=O)[C@H](C)N(C)C(=O)[C@H](Cc2ccc(O)cc2)NC(=O)[C@H](Cc2ccc(-c3ccccc3)cc2)NC(=O)[C@H](C(C)C)NC(=O)[C@H](Cc2c[nH]c3ccccc23)NC(=O)[C@H](CC(=O)O)NC(=O)[C@H](Cc2ccc(O)cc2)NC(=O)[C@H](CC(N)=O)NC(=O)CSC[C@@H](C(=O)N[C@@H](C)C(N)=O)NC(=O)[C@H]([C@@H](C)O)NC(=O)[C@H](C(C)C)NC1=O` [Compound 1303] ({CH2CO}-NYDWV[Bip]Y[NMeA][dL][Dab]LVTCA-NH2; thioether N-14), the half-inhibitory concentration (IC50) stood at 0.07 µM.

With `CC(C)C[C@H]1NC(=O)[C@H](C)N(C)C(=O)[C@H](CCCNC(=N)N)NC(=O)[C@H](Cc2ccc(-c3ccccc3)cc2)NC(=O)[C@H](C(C)C)NC(=O)[C@H](Cc2c[nH]c3ccccc23)NC(=O)[C@H](CC(=O)O)NC(=O)[C@H](Cc2ccc(O)cc2)NC(=O)[C@H](Cc2ccccc2)NC(=O)CSC[C@@H](C(=O)N[C@@H](C)C(N)=O)NC(=O)[C@H]([C@@H](C)O)NC(=O)[C@H](C(C)C)NC(=O)[C@H](CC2CCCCC2)NC(=O)[C@H](CCCNC(=N)N)NC1=O` [Compound 1115] ({CH2CO}-FYDWV[Bip]R[NMeA][dL]R[Cha]VTCA-NH2; thioether N-14), the IC50 came out at 0.05 µM.

Turning to `CC(C)C[C@@H]1NC(=O)[C@H](Cc2c[nH]c3ccccc23)NC(=O)[C@H](CC(=O)O)NC(=O)[C@H](Cc2ccccc2C#N)NC(=O)[C@H](Cc2ccccc2)NC(=O)CSC[C@@H](C(=O)N[C@@H](C)C(N)=O)NC(=O)[C@H](CO)NC(=O)[C@H](C(C)C)NC(=O)[C@H](CC(C)C)NC(=O)[C@H](CC(N)=O)NC(=O)[C@@H](C)NC(=O)[C@H](C)N(C)C(=O)[C@H](C(C)C)NC(=O)[C@H](Cc2ccc(-c3ccccc3)cc2)NC1=O` [Compound 1806] ({CH2CO}-F[Phe(2-CN)]DWL[Bip]V[NMeA][dA]NLVSCA-NH2; thioether N-14), the IC50 is 0.23 µM.

For the compound `CC(C)C[C@@H]1NC(=O)[C@H](Cc2c[nH]c3ccccc23)NC(=O)[C@H](CC(=O)O)NC(=O)[C@H](Cc2ccc(Oc3ccccc3)cc2)NC(=O)[C@H](Cc2ccccc2)NC(=O)CSC[C@@H](C(=O)N[C@@H](C)C(N)=O)NC(=O)[C@H](CO)NC(=O)[C@H](C(C)C)NC(=O)[C@H](CC(C)C)NC(=O)[C@H](CC(N)=O)NC(=O)[C@@H](C)NC(=O)[C@H](C)N(C)C(=O)[C@H](C(C)C)NC(=O)[C@H](Cc2ccc(-c3ccccc3)cc2)NC1=O` [Compound 1813] ({CH2CO}-F[Tyr(Ph)]DWL[Bip]V[NMeA][dA]NLVSCA-NH2; thioether N-14), the IC50 came to 0.3 µM.

`CCCC[C@@H]1NC(=O)[C@H](CCCNC(=N)N)NC(=O)[C@@H](CC(C)C)NC(=O)[C@H](C)N(C)C(=O)[C@H]([C@@H](C)CC)NC(=O)[C@H](Cc2ccc(-c3ccccc3)cc2)NC(=O)[C@H](C(C)C)NC(=O)[C@H](Cc2c[nH]c3ccccc23)NC(=O)[C@H](CC(=O)O)NC(=O)[C@H](Cc2ccc(O)cc2)NC(=O)[C@H](Cc2ccc(OCC(=O)O)cc2)NC(=O)CSC[C@@H](C(=O)N[C@@H](C)C(N)=O)NC(=O)[C@H]([C@@H](C)O)NC(=O)[C@H](C(C)C)NC1=O` [Compound 1497] ({CH2CO}-Y(Carboxymethyl)YDWV[Bip]I[NMeA][dL]R[Nle]VTCA-NH2; thioether N-14): the IC50 stood at 0.2 µM.

With `C#CC[C@H](NC(=O)[C@@H](C)NC(=O)[C@@H]1CSCC(=O)N[C@@H]([C@@H](C)O)C(=O)N[C@@H](Cc2ccc(OCC(=O)O)cc2)C(=O)N[C@@H](CC(=O)O)C(=O)N[C@@H](Cc2cccc(C)c2)C(=O)N[C@@H](Cc2ccc(OCC(=O)O)cc2)C(=O)N[C@@H](Cc2ccc(-c3ccccc3)cc2)C(=O)N[C@@H](Cc2ccc(OCC(=O)O)cc2)C(=O)N(C)[C@@H](C)C(=O)N[C@H](CC(C)C)C(=O)N[C@@H](CCN)C(=O)N[C@@H](CC2CCCCC2)C(=O)N[C@@H](C(C)(C)O)C(=O)N[C@@H](CCC(=O)O)C(=O)N1)C(N)=O` [Compound 1945] ({CH2CO}-TY(Carboxymethyl)D[Phe(3-Me)]Y(Carboxymethyl)[Bip]Y(Carboxymethyl)[NMeA][dL][Dab][Cha][Val(3-OH)]EC[dA][Pra]-NH2; thioether N-14), the IC50 stood at 0.93 µM.

Take `Cc1cccc(C[C@@H]2NC(=O)[C@H](CC(=O)O)NC(=O)[C@H](Cc3ccc(OCC(=O)O)cc3)NC(=O)[C@H](C(C)O)NC(=O)CSC[C@@H](C(=O)N[C@@H](CCN)C(N)=O)NC(=O)[C@H](CO)NC(=O)[C@H](C(C)(C)O)NC(=O)[C@H](CC3CCCCC3)NC(=O)[C@H](CCN)NC(=O)[C@@H](CC(C)C)NC(=O)[C@H](C)N(C)C(=O)[C@H](Cc3ccc(OCC(=O)O)cc3)NC(=O)[C@H](Cc3ccc(-c4ccccc4)cc3)NC(=O)[C@H](Cc3ccc(C(=O)O)cc3)NC2=O)c1` (stereo partly drawn) [Compound 2150] ({CH2CO}-[Thr(3ξ)]Y(Carboxymethyl)D[Phe(3-Me)][Phe(4-COOH)][Bip]Y(Carboxymethyl)[NMeA][dL][Dab][Cha][Val(3-OH)]SC[Dab]-NH2; thioether N-14): the IC50 came out at 0.01 µM.

`CC(C)C[C@@H]1NC(=O)[C@H](CCN)NC(=O)[C@@H](CC(C)C)NC(=O)[C@H](C)N(C)C(=O)[C@H](CCCNC(N)=O)NC(=O)[C@H](Cc2ccc(-c3ccccc3)cc2)NC(=O)[C@H](C(C)C)NC(=O)[C@H](Cc2c[nH]c3ccccc23)NC(=O)[C@H](CC(=O)O)NC(=O)[C@H](Cc2ccc(O)cc2)NC(=O)[C@H](Cc2ccccn2)NC(=O)CSC[C@@H](C(=O)N[C@@H](C)C(N)=O)NC(=O)[C@H]([C@@H](C)O)NC(=O)[C@H](C(C)C)NC1=O` [Compound 1327] ({CH2CO}-[2Pal]YDWV[Bip][Cit][NMeA][dL][Dab]LVTCA-NH2; thioether N-14): the IC50 worked out at 0.08 µM.

For the compound `CC(C)C[C@@H]1NC(=O)[C@H](CCCNC(=N)N)NC(=O)[C@@H](Cc2ccccc2)NC(=O)[C@H](C)N(C)C(=O)[C@H](CCCNC(=N)N)NC(=O)[C@H](Cc2ccc(-c3ccccc3)cc2)NC(=O)[C@H](C(C)C)NC(=O)[C@H](Cc2c[nH]c3ccccc23)NC(=O)[C@H](CC(=O)O)NC(=O)[C@H](Cc2ccncc2)NC(=O)[C@H](CC(N)=O)NC(=O)CSC[C@@H](C(=O)N[C@@H](C)C(N)=O)NC(=O)[C@H]([C@@H](C)O)NC(=O)[C@H](C(C)C)NC1=O` [Compound 1162] ({CH2CO}-N[4Pal]DWV[Bip]R[NMeA][dF]RLVTCA-NH2; thioether N-14), the IC50 came to 0.22 µM.

For `CC(C)C[C@@H]1NC(=O)[C@H](CCN)NC(=O)[C@@H](CC(C)C)NC(=O)[C@H](C)N(C)C(=O)[C@H](Cc2cnc[nH]2)NC(=O)[C@H](Cc2ccc(-c3ccccc3)cc2)NC(=O)[C@H](C(C)C)NC(=O)[C@H](Cc2c[nH]c3ccccc23)NC(=O)[C@H](CC(=O)O)NC(=O)[C@H](Cc2ccc(C(=O)O)cc2)NC(=O)[C@H](CC(N)=O)NC(=O)CSC[C@@H](C(=O)N[C@@H](C)C(N)=O)NC(=O)[C@H]([C@@H](C)O)NC(=O)[C@H](C(C)C)NC1=O` [Compound 1383] ({CH2CO}-N[Phe(4-COOH)]DWV[Bip]H[NMeA][dL][Dab]LVTCA-NH2; thioether N-14), the IC50 was determined as 0.06 µM.

In the case of `CC(C)C[C@@H]1NC(=O)[C@H](CCN)NC(=O)[C@@H](CC(C)C)NC(=O)[C@H](C)N(C)C(=O)[C@H](CCCNC(N)=O)NC(=O)[C@H](Cc2ccc(-c3ccccc3)cc2)NC(=O)[C@H](C(C)C)NC(=O)[C@H](Cc2c[nH]c3ccccc23)NC(=O)[C@H](CC(=O)O)NC(=O)[C@H](Cc2cccc(C#N)c2)NC(=O)[C@H](CN)NC(=O)CSC[C@@H](C(=O)N[C@@H](C)C(N)=O)NC(=O)[C@H]([C@@H](C)O)NC(=O)[C@H](C(C)C)NC1=O` [Compound 1403] ({CH2CO}-[Dap][Phe(3-CN)]DWV[Bip][Cit][NMeA][dL][Dab]LVTCA-NH2; thioether N-14), the IC50 was 0.13 µM.

In the case of `Cc1cccc(C[C@@H]2NC(=O)[C@H](CC(=O)O)NC(=O)[C@H](Cc3ccncc3)NC(=O)[C@H](Cc3ccc(OCC(=O)O)cc3)NC(=O)CSC[C@@H](C(=O)N[C@@H](CC(=O)O)C(N)=O)NC(=O)[C@H](CO)NC(=O)[C@H](C(C)C)NC(=O)[C@H](CC(C)C)NC(=O)[C@H](CC(N)=O)NC(=O)[C@@H](CC(C)C)NC(=O)[C@H](C)N(C)C(=O)[C@H](C(C)C)NC(=O)[C@H](Cc3ccc(-c4ccccc4)cc3)NC(=O)[C@H](CC(C)C)NC2=O)c1` [Compound 1601] ({CH2CO}-Y(Carboxymethyl)[4Pal]D[Phe(3-Me)]L[Bip]V[NMeA][dL]NLVSCD-NH2; thioether N-14), the IC50 stood at 0.02 µM.

As for `CC(C)C[C@@H]1NC(=O)[C@H](Cc2c[nH]c3ccccc23)NC(=O)[C@H](CC(=O)O)NC(=O)[C@H](Cc2ccc(OCC(=O)O)cc2)NC(=O)[C@H](Cc2ccccc2)NC(=O)CSC[C@@H](C(=O)N[C@@H](C)C(N)=O)NC(=O)[C@H](CO)NC(=O)[C@H](C(C)C)NC(=O)[C@H](CC(C)C)NC(=O)[C@H](CC(=O)O)NC(=O)[C@@H](CC(C)C)NC(=O)[C@H](C)N(C)C(=O)[C@H](C(C)C)NC(=O)[C@H](Cc2ccc(-c3ccccc3)cc2)NC1=O` [Compound 2027] ({CH2CO}-FY(Carboxymethyl)DWL[Bip]V[NMeA][dL]DLVSCA-NH2; thioether N-14), the IC50 came to 0.02 µM.

For the origin of these results see patent publication US20240409585A1, “MACROCYCLIC IMMUNOMODULATORS” (priority 2021, published 2024).
